Test: reactivity of the drug under the curing conditions of the EMR
Assay type: physicochemical
Settings: mixed with dextramate, PEGDA and Irgacure, cured for 10 minutes
Procedure: Dextramate (24.2 mL of a 23.1 w/w % solution), PEGDA (16.3 mL of a 8.6 w/w % solution), Irgacure (14 mL of a 0.5 w/w % solution), and valsartan (2.82 mL or 1.41 mL of a 24.8 w/w % solution or 2.82 mL of a 1:10 dilution of a 24.8 w/w % solution) are mixed together. The mixture is cured for 10 minutes. After curing, 100 mL of dH2O is added to the cured product to create a swelled gel.

With `CCCCC(=O)N(Cc1ccc(-c2ccccc2-c2nnn[nH]2)cc1)[C@H](C(=O)O)C(C)C` [valsartan] the “reactivity under the curing conditions” value was “does not exhibit reactivity”.

Source: patent US20210069375A1, “Extracellular Matrices, Uses thereof, and Method for Making Extracellular Matrices” (Gemstone Biotherapeutics LLC, priority 2017, published 2021)
